The subject of experiment [1] is N-methyltransferase (NMT). Nature of the experiment: Standard enzyme assay with purified E. coli-produced NMT, N-methylated product measured by LC-MS. Particulars: for acceptance as substrate for N-methylation by NMT (FIG. 3): 1 mM alkaloid substrate, 1 mM SAM, 100 μg/mL purified NMT, 4 h at 37° C., pH 8.5. It is filed as biochemical, Ephedra sinica. On the procedure: Open reading frames (ORFs) of N-methyltransferase (NMT) enzyme sequences (i.e. SEQ. ID NO: 1 and SEQ. ID NO: 2) were subcloned into Escherichia coli expression vector pET47b (Merck Millipore) in-frame with vector-encoded His-tag for downstream purification purposes. Constructs were transformed into E. coli strains ArcticExpress (Agilent Technologies) or Rosetta (Novagen). Recombinant His-tagged protein production was performed according to standard procedures (Farrow et al. 2013. J. Biol. Chem. 288: 28977) and manufacturer's instructions. Briefly, cultures of E. coli harboring pET47b were grown on an orbital shaker (200 rpm) to log phase in 1 L of LB medium containing gentamicin, streptomycin and kanamycin (Arctic Express) or chloramphenicol and kanamycin (Rosetta). Recombinant His-tagged protein production was initiated by the addition of 1 mM isopropyl β-D-1-thiogalactopyranoside (IPTG). To produce NMT, cultures were grown for 24 h at 15° C.
For purification, bacterial pellets obtained following induction/incubation were resuspened in 10 mL of resuspension buffer (50 mM Tris pH 8.5, 10% v/v glycerol, 1% w/v polyvinylpyrrolidone, 5 mM dithiothreitol) and lysed at 4° C. using a French pressure cell (1,000 psi). After centrifugation (10,000 g) to remove insoluble debris, the supernatant was incubated on ice with buffer-equilibrated Talon resin (Clontech) on an orbital shaker (60 rpm) for 60 minutes. The protein-charged resin was washed twice with 10 mL of cold resuspension buffer containing 2.5 mM imidazole, and proteins were eluted stepwise with increasing concentrations (10 to 200 mM) of imidazole in resuspension buffer. Total proteins from a 40 mM imidazole elution were desalted using a PD-10 column (EMD Millipore) and resuspension buffer free of imidazole. Recombinant proteins were analyzed by SDS-PAGE to assess yield and purity, and immunoblot analyses were conducted using α-His primary antibodies and goat-anti-mouse, horseradish peroxidase-conjugated secondary antibodies. Total protein concentration was determined using BCA Protein Assay kit (Thermo Scientific). Calculated protein concentrations were adjusted on gel densitometry. […] Specifically, standard enzyme reactions consisted of 50 mM Tris pH 8.5, 10 v/v glycerol, 1% w/v polyvinylpyrrolidone, 5 mM dithiothreitol, 1 mM alkaloid substrate, 1 mM SAM (S-adenosylmethionine) and 100 μg/mL purified NMT protein in a total of 100 μl reaction volume. Reactions were incubated for 4 h at 37° C., and stopped via 1) basification of the reaction mixture to pH 10-11, and 2) immediate addition of 1 mL ethyl acetate. Quenched reactions were vortexed and centrifuged (10,000 rpm) to separate organic and aqueous phases, and organic phase was carefully drawn off, placed in a new tube, reduced to dryness under vacuum, and resuspended in 500 μL of Solvent A (10 mM ammonium acetate pH 5.5, 5% v/v methanol). The resuspensions were centrifuged (10,000 rpm) prior to analysis by LC-MS to remove insoluble matter.
Ten μL sample was injected for LC-MS analysis using an Agilent 6410B triple quadrupole mass analyzer equipped with a 1200 Agilent HPCL system. Samples were fractionated using a previously described LC-ESI-MS/MS method [J. Chromatography B. 879:727, 2011] employing a Prodigy Phenyl-3 column (Phenomenex) which separated enantiomeric pairs (e.g. pseudoephedrine/ephedrine). Briefly, the HPLC gradient began as 95% Solvent A (Solvent B=100% methanol) for 1 minute at a flow rate of 0.2 ml/min, and decreased to 30% Solvent A/70% Solvent B over 19 minutes, then graded to 10% Solvent A/[…] over 0.5 minutes, then immediately returned to 100% Solvent A and equilibrated for 5 minutes. […] ESI and MS conditions were essentially the same as described [J. Chromatography B. 879:727, 2011].

For experiment [2], the system named is plant-derived NMT. Nature of the experiment: NMT activity assay with Ephedra sinica plant tissue extract. Particulars: standard assay conditions, 4 hour assay, Ephedra sinica-derived protein. It is filed as biochemical. The method, then:
For purification, bacterial pellets obtained following induction/incubation were resuspened in 10 mL of resuspension buffer (50 mM Tris pH 8.5, 10% v/v glycerol, 1% w/v polyvinylpyrrolidone, 5 mM dithiothreitol) and lysed at 4° C. using a French pressure cell (1,000 psi). After centrifugation (10,000 g) to remove insoluble debris, the supernatant was incubated on ice with buffer-equilibrated Talon resin (Clontech) on an orbital shaker (60 rpm) for 60 minutes. The protein-charged resin was washed twice with 10 mL of cold resuspension buffer containing 2.5 mM imidazole, and proteins were eluted stepwise with increasing concentrations (10 to 200 mM) of imidazole in resuspension buffer. Total proteins from a 40 mM imidazole elution were desalted using a PD-10 column (EMD Millipore) and resuspension buffer free of imidazole. Recombinant proteins were analyzed by SDS-PAGE to assess yield and purity, and immunoblot analyses were conducted using α-His primary antibodies and goat-anti-mouse, horseradish peroxidase-conjugated secondary antibodies. Total protein concentration was determined using BCA Protein Assay kit (Thermo Scientific). Calculated protein concentrations were adjusted on gel densitometry. Standard enzyme assays included approximately 100 μg/mL purified NMT protein, which was determined to be in the linear range of catalyst performance. […]

`NCC(O)c1ccc(O)cc1` (stereo not shown) [octopamine]: in experiment [1], the “acceptance as substrate for N-methylation by NMT (FIG. 3)” value (shortened to “acceptance as substrate”) is given as “accepted as substrates”.
The same measure, in the same setting: next, `CN[C@@H](C)[C@@H](O)c1ccccc1` [pseudoephedrine]: “accepts”.
Consider `CN[C@@H](C)[C@H](O)c1ccccc1` [ephedrine], for which the “acceptance as substrate” value in experiment [1] is “accepts”. The “effectiveness as NMT substrate, absolute product quantification (FIG. 4)” value in experiment [1] (standard assay conditions, product quantified with standard curves as ng alkaloid per μg protein per hour) was “somewhat lower”.
As to `CNCC(O)c1ccc(O)cc1` (stereo not shown) [Synephrine, synephrine], in experiment [1], the “acceptance as substrate” value is recorded as “accepted as substrates”.
`CC(N)C(O)c1ccccc1` (stereo not shown) [norephedrine]: in experiment [2], the “conversion by plant-derived extract” value is “yielding ephedrine at comparable levels to E. coli-produced NMT”.
Regarding `C[C@H](N)C(=O)c1ccccc1` [cathinone], the “acceptance as substrate” value in experiment [1] is listed as “acting as substrate”.

The values are drawn from patent US10676767B2, “Methods and compositions for making ephedrine and related alkaloid compounds” (priority 2015, dated 2020).
